Experimental data from publication PMC12040169 (PLOS Biology, 2025).

Test: in vitro
Settings: human, hela cells, % viability

Structure (SMILES)	viability at 28.5 h, 10 µM	viability at 28.5 h, 10 µM (bulk resorufin, single well)
CC(NC(=O)N1CCNC(=O)C1)c1ccccc1 (centres unmarked) [CBK155877]	96%	
Cn1cc(C2CCCCCN2C(=O)c2ccccc2F)cn1 (centres unmarked) [CBK285119]	107%	
CC(C)CC(=O)N1C[C@H]2CCCN(Cc3ccsc3)[C@H]2C1 [CBK285290]	102%	
CCOC(=O)C(C(=O)OCC)(N1CCOCC1)N1CCOCC1 [CBK261176]	112%	
Cc1cc(C(=O)CSc2nnc(C(C)C)n2Cc2ccco2)c(C)n1C [CBK295178]	81.9%	
CS(=O)(=O)N(CC(=O)O)c1cccc(C(F)(F)F)c1 [CBK286988]	87.8%	
N=c1n(CCN2CCCCC2)c2ccccc2n1CC(=O)c1cccc([N+](=O)[O-])c1 [CBK263481B]	103%	
O=C(NCCCN1CCN(Cc2ccccc2)CC1)c1cn2cc(C(F)(F)F)cc(Cl)c2n1 [CBK074654]	89.3%	
COC(=O)c1ccc(-c2ccc(Cl)c(Cl)c2)nc1 [CBK149231]	101%	
O=C(NCc1ccc2c(c1)OCO2)N1CCCCC1CO (centres unmarked) [CBK156166]	89.3%	
CCOC(=O)C1CCCN(C(=O)Cn2ncc(Cl)c(Cl)c2=O)C1 (centres unmarked) [CBK305573]	47.7%	
Clc1cc(N2CCCC2)ncn1 [CBK083597]	99.2%	
CC(=O)N1CCC2(CCCC[C@H]3CN(Cc4coc(C)n4)CC[C@@H]3NC(=O)CNC2=O)CC1 [CBK292165]	101%	
c1ccc(-n2ncc3c(N4CCCC4)ncnc32)cc1 [CBK287357]	86.6%	
CC1CCN(S(=O)(=O)c2ccc(Oc3ccc([N+](=O)[O-])cc3)cc2)CC1 [CBK261774]	98%	
Cc1cccc(N2CCN(C(=O)C3CCN(Cc4cccc(OCc5ccccc5)c4)CC3)CC2)c1C [CBK264328G]	94.3%	
c1ccc(COc2cccc(CNCCN3CCOCC3)c2)cc1 [CBK278226C]	95.8%	
COc1ccc(-c2cnc(N)c(-c3ccc(C=O)cc3)n2)cn1 [CBK064096]	90.8%	
Cc1csc2c(NC(C)C)ncnc12 [CBK017059]	95.7%	
CCc1noc(CN2CCCC(c3ccc(C(=O)O)cc3)C2)n1 (centres unmarked) [CBK307102]	105%	
C=CCn1c(Cc2csc(NC(=O)c3ccc(OC)c(OC)c3)n2)n[nH]c1=S [CBK295324]	102%	
O=C1NC(=S)NC(=O)C1=Cc1ccc(OCc2ccccc2F)c(Br)c1 [CBK264257]		97.7%
N#Cc1ccc(SCCOC(=O)c2cccs2)c([N+](=O)[O-])c1 [CBK066853]	99%	

Structure (SMILES)	viability at 28.5 h, 10 µM	viability at 28.5 h, 10 µM (bulk resorufin, single well)
N#Cc1cc(SCCC(=O)O)c(N2CCOCC2)cc1C#N [CBK269212]	96.3%	
COc1ccc(CNC(=O)Cn2nc3c(SCc4ccc(Cl)cc4)nccn3c2=O)cc1 [CBK300541]	90.5%	
O=C(NNCc1ccccc1)c1cc(Br)cnc1N1CCN(C(=O)c2ccco2)CC1 [CBK076460]	101%	
Cc1nccn1C1CCCN(C(C)C(=O)NC2(C#N)CCCCC2)C1 (centres unmarked) [CBK304194]	87.3%	
CC(O)c1nc2ccccc2n1C (centres unmarked) [CBK115560]	94.9%	
Cc1cc(-c2cncc(-c3ccc(O)cc3)n2)ccc1S(=O)(=O)N1CCOCC1 [CBK131460]	92.4%	
O=C(CSc1ccc(Cl)cc1)NCCCN1CCOCC1 [CBK009390]	99.6%	
Cc1cc(C)c(-c2csc(NS(=O)(=O)c3cccc(C(=O)O)c3)n2)cc1C [CBK296698]	118%	
CN(C)S(=O)(=O)N(CC(=O)N1CCN(Cc2ccc3c(c2)OCO3)CC1)c1ccccc1 [CBK267994]	102%	
COc1nccnc1OC1CCN(CCc2ccc(F)cc2)CC1 [CBK084259]	102%	
OCc1cccc(-c2nccnc2NCC(O)COc2ccccc2)c1 (centres unmarked) [CBK036842]	94.3%	
Cc1ncsc1C(=O)N1CCCC(n2cnc3cc(F)ccc32)C1 (centres unmarked) [CBK284470]	91.2%	
CC[C@H]1CN(C(=O)c2ccnc(Cl)c2)CC[C@H]1CC(=O)O [CBK289139]	92%	
COc1cc2c(cc1OC)CN(/C=N/c1sc3c(c1C#N)CC(C)(C)NC3(C)C)CC2 [CBK262918]	105%	
CCn1cc(-c2cncn2CCCC(C)(C)CO)cn1 [CBK281704]	88.3%	
NC(=O)CN1CCC(Oc2cncc(OCc3ccc(Cl)c(Cl)c3)n2)C1 (centres unmarked) [CBK084429]	101%	
CC1CCC/C(=N\NC(=O)C2C3CCCCC32)C1 (centres unmarked) [CBK025750]	116%	
CC(C)(CO)CNc1cc(Cl)nc2ccnn12 [CBK037200]	91%	
Cc1nccn1Cc1ccccc1C(=O)NCCn1ccnc1 [CBK281580]	84.7%	
NC1CCC(NC(=O)c2cnc(-c3ccc(Cl)cc3)c(-c3ccco3)c2)CC1 (centres unmarked) [CBK037563]	105%	
Cc1nc(-c2ccccc2)sc1CNC(=O)/C=C/c1c[nH]cn1 [CBK092368]	83.3%	
COC(=O)c1ccccc1NC(=O)CN(C)S(=O)(=O)c1c(C)cc(C)cc1C [CBK266241]	110%	
CCC(C)(C)c1ccc(S(=O)(=O)N2CCN(Cc3c(C)nn(C)c3C)CC2)cc1 [CBK062835]	97.2%	

Structure (SMILES)	viability at 28.5 h, 10 µM	viability at 28.5 h, 10 µM (bulk resorufin, single well)
COc1ccc(NC(=O)CCC(=O)O)c(OC)c1 [CBK265451]	104%	
CC(=O)Nc1ccc(S(=O)(=O)Nc2ccccc2C(=O)O)cc1 [CBK042361]	107%	
O=S(=O)(Nc1cc(NCCCN2CCOCC2)c2occc2c1)c1ccccc1C(F)(F)F [CBK067838C]	94.9%	
Nc1ccc(CCNC(=O)c2cnc(-c3cccc(C(F)(F)F)c3)c(-c3ccncc3)c2)cc1 [CBK037580]	90.8%	
CC(=O)Nc1ccc(S(=O)(=O)Nc2cccc(-c3cn4cccnc4n3)c2)cc1 [CBK269125]	74.9%	
COc1ccccc1-c1cc2c(=O)n(C)c(-c3ccc(CNC(C)C)cc3)cc2o1 [CBK051699C]	84.5%	
Cc1ccc(-c2c[nH]c([C@@H]3COCCN3Cc3csnn3)n2)cc1 [CBK289302]	91.4%	
N#Cc1ccc(OCCO)cc1 [CBK000723]	107%	
O=C(c1cc(F)cc(F)c1)N1CCC(c2cccnc2)CC1 [CBK283892]	87.5%	
Cc1cc(=O)c2ccccc2n1CC(=O)N1CCNC(=O)C1C (centres unmarked) [CBK306511]	109%	
Cc1ccccc1Nc1ccccc1C(=O)O [CBK012249]	113%	
CC(=O)Nc1ccc(S(=O)(=O)N2CCN(S(=O)(=O)N3CCCCCC3)CC2)cc1 [CBK268983]	99.3%	
Cn1ccnc1C1(O)CCN(C(=O)C2(c3ccccc3)CC2)CC1 [CBK283538]	98.4%	
CCN(c1ccc(NC(=O)Cn2nc(C(=O)O)c3ccccc3c2=O)cc1)C(C)C [CBK297734]	94.5%	
C(=C\CSc1nc2ccccc2[nH]1)/CSc1nc2ccccc2[nH]1 [CBK263090]	107%	
Cc1ccc(S(=O)(=O)N(CC(=O)O)c2ccc(Br)cc2)cc1 [CBK287125]	95.3%	
Cc1ccc(SCCNc2nc3c([nH]2)c(=O)n(C)c(=O)n3C)cc1 [CBK269887]	92.7%	
CCOC(=O)c1cccc(-c2ccc(F)cc2F)n1 [CBK149245]	101%	
COc1ccc(OC)c(NC(=O)CN2CCC(C(N)=O)(N3CCCCC3)CC2)c1 [CBK268462]	98.2%	
O=C1NC/C=C/CC2(CCN(C(=O)c3cccnn3)CC2)C(=O)NCCOc2ccccc21 [CBK292095]	108%	
Cc1nnc(N2CCn3nc(C(O)Cc4ccccc4)cc3C2)s1 (centres unmarked) [CBK307152]	86%	
O=C(O)c1ccc(-c2ccc(/C=C/c3[nH]c(=O)[nH]c(=O)c3[N+](=O)[O-])o2)cc1Cl [CBK267139]	94.9%	
O=C(CN1CCCC(c2cccc(Cc3ccc(F)cc3)n2)C1)Nc1nccs1 (centres unmarked) [CBK286503]	93.1%	

Structure (SMILES)	viability at 28.5 h, 10 µM	viability at 28.5 h, 10 µM (bulk resorufin, single well)
CCN(CC)C(=O)N1CCC(c2cccnc2)CC1 [CBK283535]	99.9%	
COc1cc(OC)cc(C(=O)N2CCC3(CC2)NC(=O)c2ccc(OC)cc2O3)c1 [CBK166328]	106%	
O=C(N[C@H]1C[C@H]2C(=O)Nc3ccc(-c4ccsc4)cc3C(=O)N2C1)c1ccccc1 [CBK289361]	91%	
O=S(=O)(Nc1nccnc1-c1ccc2c(c1)OCO2)c1cccc(Cl)c1 [CBK050951]	92.4%	
Fc1ccccc1Nc1nc(-c2ccncc2)cs1 [CBK267216]	103%	
COc1cc(CNC(=O)NC(=O)C2CCN(CCc3cccc(O)c3)CC2)cc(OC)c1OC [CBK034857]	93.2%	
CCc1noc(C)c1C(=O)N1CCN(C(C#N)C2CCCCC2)CC1 (centres unmarked) [CBK304916]	88.8%	
N#CCCn1cc(C(=O)N2CCCCC2)c(-c2cc3ccccc3o2)n1 [CBK306206]	95.1%	
CN(C)C(=O)c1sc2ccccc2c1Cl [CBK067817]	82.4%	
Cc1nc2c(C(=O)NCCOCCO)cnn2c(C)c1Cc1ccc(F)c(Cl)c1 [CBK167457]	96.3%	
COC(=O)Nc1ccc2c(c1)N(C(=O)CCN1CCOCC1)c1ccccc1CC2 [CBK261284C]	95.9%	
c1ccc2c(c1)nnn2Cc1nnc2sc(-c3cnccn3)nn12 [CBK268393]	84.7%	
CCN1CC(C(=O)N2CCN(C(=O)c3ccccc3F)CC2)CC1=O (centres unmarked) [CBK282937]	92.3%	
O=C(O)C(=O)N1CCN(C(=O)c2cc3ccccc3[nH]2)CC1 [CBK288433]	107%	
Cc1ccc(C(=O)NCCC(=O)Nc2ccccc2C)cc1 [CBK268569]	103%	
Cc1cccc(C)c1NC(=O)CN1CCC(Oc2cncc(OCc3cccnc3)n2)C1 (centres unmarked) [CBK084460]	87.6%	
Cc1onc(-c2ccccc2)c1CNC(=O)[C@@H]1CCCN1C [CBK144077]	89.8%	
CCCS(=O)(=O)N1CCN(C(=O)c2cccnc2)CC1 [CBK264239]	93.8%	
CC(=O)N1CCC2(C/C=C/C[C@H]3CN(CCCc4ccccc4)CC[C@H]3NC(=O)CNC2=O)CC1 [CBK292140]	90.9%	
Nc1nnc(C2CCCCC2)s1 [CBK039123]	84.5%	
